Patent US20240254118A1, “PRMT5 INHIBITORS AND USES THEREOF” (Gilead Sciences, Inc., priority 2022, published 2024)

Assays:
[1] = tested on: HCT116 MTAP-deleted cells; experiment: Cell viability assay (CellTiter-Glo, 7 days), HCT116 MTAP-deleted; settings: Homo sapiens, HCT-116, 168 h
[2] = tested on: SDMA signal (PRMT5 inhibition) in HCT116 MTAP-deleted cells; experiment: Symmetric di-methyl arginine image-based high content screen assay (SDMA assay), HCT116 MTAP-deleted; format: cell-based; settings: SDMA assay; for EC50: Homo sapiens, HCT-116, 72 h, 3 days of treatment, cell line not given, taken as HCT116 MTAP-deleted, read-out: EC50 (SDMA assay)
In short: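 HCT116 MTAP-deleted cells treated with compound until Day 3, then formalin-fixed, permeabilized and immunostained for SDMA, with DAPI nuclear counterstain. Imaged by high-content microscopy; SDMA read-out is mean Alexa 488 intensity per DAPI-defined cell, reflecting PRMT5 inhibition.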

[3] = taken as HCT116 WT versus MTAP-deleted
[4] = taken as HCT116 WT vs MTAP-deleted

SMILES	EC50 [2]	EC50 selectivity (SDMA assay) [2, 3]	EC50 selectivity (SDMA assay) [2, 4]	CC50 [1]
Cn1ncc2c(N)nc3ccc(C(=O)N(Cc4ccc(C(F)(F)F)nc4)N4CCCC4=O)cc3c21 [Example 392, 4-amino-1-methyl-N-(2-oxopyrrolidin-1-yl)-N-[[6-(trifluoromethyl)-3-pyridyl]methyl]pyrazolo[4,3-c]quinoline-8-carboxamide]	1 to 5 nM	285		< 100 nM
CN(C(=O)C1CC1)N(Cc1ccc(C(F)(F)F)nc1)C(=O)c1ccc2nc(N)c3cnn(C)c3c2c1 [Example 393, 4-amino-N′-(cyclopropanecarbonyl)-N′,1-dimethyl-N-[[6-(trifluoromethyl)-3-pyridyl]methyl]pyrazolo[4,3-c]quinoline-8-carbohydrazide]	1 to 5 nM	380		< 100 nM
COCCN(C)N(Cc1ccc(C(F)(F)F)cc1F)C(=O)c1cc2c(cc1F)nc(N)c1cnn(C)c12 [Example 395, 4-amino-7-fluoro-N-(2-fluoro-4-(trifluoromethyl)benzyl)-N′-(2-methoxyethyl)-N′,1-dimethyl-1H-pyrazolo[4,3-c]quinoline-8-carbohydrazide]	1 to 5 nM	33		< 100 nM
COCCN(C)N(Cc1ccc(C(F)(F)F)cc1F)C(=O)c1ccc2nc(N)c3cnn(C)c3c2c1 [Example 396, 4-amino-N-[[2-fluoro-4-(trifluoromethyl)phenyl]methyl]-N′-(2-methoxyethyl)-N′,1-dimethyl-pyrazolo[4,3-c]quinoline-8-carbohydrazide]	1 to 5 nM		135	< 100 nM
Cn1ncc2c(N)nc3ccc(C(=O)N(Cc4ccc(C(F)(F)F)cc4F)N4CCOCC4)cc3c21 [Example 397, 4-amino-N-[[2-fluoro-4-(trifluoromethyl)phenyl]methyl]-1-methyl-N-morpholino-pyrazolo[4,3-c]quinoline-8-carboxamide]	1 to 5 nM		78	< 100 nM
Cn1ncc2c(N)nc3cc(F)c(C(=O)N(Cc4ccc(C(F)(F)F)cc4F)N4CCOCC4)cc3c21 [Example 398, 4-amino-7-fluoro-N-[[2-fluoro-4-(trifluoromethyl)phenyl]methyl]-1-methyl-N-morpholino-pyrazolo[4,3-c]quinoline-8-carboxamide]	1 to 5 nM		31	< 100 nM
CN(C(=O)CC1CC1)N(Cc1ccc(C(F)(F)F)cn1)C(=O)c1ccc2nc(N)c3cnn(C)c3c2c1 [Example 399, 4-amino-N′-(2-cyclopropylacetyl)-N′,1-dimethyl-N-[[5-(trifluoromethyl)-2-pyridyl]methyl]pyrazolo[4,3-c]quinoline-8-carbohydrazide]	1 to 5 nM		358	< 100 nM
CC(=O)N(C)N(Cc1cc2cc(Cl)ccn2n1)C(=O)c1ccc2nc(N)c3cnn(C)c3c2c1 [Example 400, N′-acetyl-4-amino-N-((5-chloropyrazolo[1,5-a]pyridin-2-yl)methyl)-N′,1-dimethyl-1H-pyrazolo[4,3-c]quinoline-8-carbohydrazide]	< 1 nM		278	< 100 nM
CC(=O)N(C)N(Cc1cc2cc(C(F)(F)F)ccn2n1)C(=O)c1ccc2nc(N)c3cnn(C)c3c2c1 [Example 402, N′-acetyl-4-amino-N′,1-dimethyl-N-((5-(trifluoromethyl)pyrazolo[1,5-a]pyridin-2-yl)methyl)-1H-pyrazolo[4,3-c]quinoline-8-carbohydrazide]	< 1 nM		311	< 100 nM
CC(=O)N(C)N(Cc1cc2ccc(Cl)cn2n1)C(=O)c1ccc2nc(N)c3cnn(C)c3c2c1 [Example 403, N′-acetyl-4-amino-N-((6-chloropyrazolo[1,5-a]pyridin-2-yl)methyl)-N′,1-dimethyl-1H-pyrazolo[4,3-c]quinoline-8-carbohydrazide]	< 1 nM		476	< 100 nM
CC(NN(Cc1ccc(C(F)(F)F)cn1)C(=O)c1ccc2nc(N)c3cnn(C)c3c2c1)C(F)(F)F (stereo not drawn) [Example 405, 4-amino-1-methyl-N-((5-(trifluoromethyl)pyridin-2-yl)methyl)-N′-(1,1,1-trifluoropropan-2-yl)-1H-pyrazolo[4,3-c]quinoline-8-carbohydrazide]	< 1 nM		154	< 100 nM
CC(=O)N(C)N(Cc1ccc(C#N)cc1Cl)C(=O)c1ccc2nc(N)c3cnn(C)c3c2c1 [Example 406, N′-acetyl-4-amino-N-(2-chloro-4-cyanobenzyl)-N′,1-dimethyl-1H-pyrazolo[4,3-c]quinoline-8-carbohydrazide]	< 1 nM		212	< 100 nM
CC(=O)N(C)N(Cc1c(F)cc(F)cc1F)C(=O)c1ccc2nc(N)c3cnn(C)c3c2c1 [Example 413, N′-acetyl-4-amino-N′,1-dimethyl-N-(2,4,6-trifluorobenzyl)-1H-pyrazolo[4,3-c]quinoline-8-carbohydrazide]	< 1 nM		497	< 100 nM
CC(=O)N(C)N(Cc1c(F)cc(C(F)(F)F)cc1F)C(=O)c1ccc2nc(N)c3cnn(C)c3c2c1 [Example 415, N′-acetyl-4-amino-N-(2,6-difluoro-4-(trifluoromethyl)benzyl)-N′,1-dimethyl-1H-pyrazolo[4,3-c]quinoline-8-carbohydrazide]	< 1 nM		26	< 100 nM
CC(=O)N(C)N(Cc1ccc(C(F)(F)F)nc1C)C(=O)c1ccc2nc(N)c3cnn(C)c3c2c1 [Example 416, N′-acetyl-4-amino-N′,1-dimethyl-N-((2-methyl-6-(trifluoromethyl)pyridin-3-yl)methyl)-1H-pyrazolo[4,3-c]quinoline-8-carbohydrazide]	1 to 5 nM		133	< 100 nM
CC(=O)N(C)N(Cc1cc2c(C(F)(F)F)cccc2s1)C(=O)c1ccc2nc(N)c3cnn(C)c3c2c1 [Example 418, N′-acetyl-4-amino-N′,1-dimethyl-N-((4-(trifluoromethyl)benzo[b]thiophen-2-yl)methyl)-1H-pyrazolo[4,3-c]quinoline-8-carbohydrazide]	1 to 5 nM		114	< 100 nM

Second part, led by results:

EC50 [2]	EC50 selectivity (SDMA assay) [2, 3]	EC50 selectivity (SDMA assay) [2, 4]	SMILES	CC50 [1]
1 to 5 nM		118	CC(=O)N(C)N(Cc1cc2cccc(C(F)(F)F)c2s1)C(=O)c1ccc2nc(N)c3cnn(C)c3c2c1 [Example 419, N′-acetyl-4-amino-N′,1-dimethyl-N-((7-(trifluoromethyl)benzo[b]thiophen-2-yl)methyl)-1H-pyrazolo[4,3-c]quinoline-8-carbohydrazide]	< 100 nM
< 1 nM		87	Cn1ncc2c(N)nc3ccc(C(=O)N(Cc4nc5cc(C(F)(F)F)ccc5n4C)N4CCCC4=O)cc3c21 [Example 420, 4-amino-1-methyl-N-((1-methyl-5-(trifluoromethyl)-1H-benzo[d]imidazol-2-yl)methyl)-N-(2-oxopyrrolidin-1-yl)-1H-pyrazolo[4,3-c]quinoline-8-carboxamide]	< 100 nM
1 to 5 nM		73	CC(=O)N(C)N(Cc1cnc(-c2ccccc2)n1C)C(=O)c1cc2c(cc1F)nc(N)c1cnn(C)c12 [Example 421, N′-acetyl-4-amino-7-fluoro-N′,1-dimethyl-N-((1-methyl-2-phenyl-1H-imidazol-5-yl)methyl)-1H-pyrazolo[4,3-c]quinoline-8-carbohydrazide]	< 100 nM
1 to 5 nM		149	CC(=O)N(C)N(Cc1nc2cc(C(F)(F)F)ccc2n1C)C(=O)c1ccc2nc(N)c3cnn(C)c3c2c1 [Example 423, N′-acetyl-4-amino-N′,1-dimethyl-N-((1-methyl-5-(trifluoromethyl)-1H-benzo[d]imidazol-2-yl)methyl)-1H-pyrazolo[4,3-c]quinoline-8-carbohydrazide]	< 100 nM
1 to 5 nM		297	CC(=O)N(C)N(Cc1ccn(-c2ccc(F)cc2)n1)C(=O)c1ccc2nc(N)c3cnn(C)c3c2c1 [Example 432, N′-acetyl-4-amino-N-((1-(4-fluorophenyl)-1H-pyrazol-3-yl)methyl)-N′,1-dimethyl-1H-pyrazolo[4,3-c]quinoline-8-carbohydrazide]	< 100 nM
1 to 5 nM		256	CN(C(=O)C1CC1)N(Cc1nc2cc(C(F)(F)F)ccc2n1C)C(=O)c1ccc2nc(N)c3cnn(C)c3c2c1 [Example 437, 4-amino-N′-(cyclopropanecarbonyl)-N′,1-dimethyl-N-((1-methyl-5-(trifluoromethyl)-1H-benzo[d]imidazol-2-yl)methyl)-1H-pyrazolo[4,3-c]quinoline-8-carbohydrazide]	< 100 nM
< 1 nM		141	CC(=O)N(C)N(Cc1nc2cccc(Cl)c2n1C)C(=O)c1ccc2nc(N)c3cnn(C)c3c2c1 [Example 438, N′-acetyl-4-amino-N-((7-chloro-1-methyl-1H-benzo[d]imidazol-2-yl)methyl)-N′,1-dimethyl-1H-pyrazolo[4,3-c]quinoline-8-carbohydrazide]	< 100 nM
< 1 nM		51	Cn1ncc2c(N)nc3ccc(C(=O)N(Cc4ccc(Cl)cc4F)NC(=O)C4CC4)cc3c21 [Example 439, 4-amino-N-(4-chloro-2-fluorobenzyl)-N′-(cyclopropanecarbonyl)-1-methyl-1H-pyrazolo[4,3-c]quinoline-8-carbohydrazide]	< 100 nM
